# Target: T1, PAR-1 receptor (Cricetulus griseus, UniProt A0A8C2QJ57)
# T1 construct: Chinese hamster ovarian (CHO) cells constituently express PAR-1 receptor; endogenous in cells; host or cells: CHO cells
# T1 sequence (A0A8C2QJ57 22-428): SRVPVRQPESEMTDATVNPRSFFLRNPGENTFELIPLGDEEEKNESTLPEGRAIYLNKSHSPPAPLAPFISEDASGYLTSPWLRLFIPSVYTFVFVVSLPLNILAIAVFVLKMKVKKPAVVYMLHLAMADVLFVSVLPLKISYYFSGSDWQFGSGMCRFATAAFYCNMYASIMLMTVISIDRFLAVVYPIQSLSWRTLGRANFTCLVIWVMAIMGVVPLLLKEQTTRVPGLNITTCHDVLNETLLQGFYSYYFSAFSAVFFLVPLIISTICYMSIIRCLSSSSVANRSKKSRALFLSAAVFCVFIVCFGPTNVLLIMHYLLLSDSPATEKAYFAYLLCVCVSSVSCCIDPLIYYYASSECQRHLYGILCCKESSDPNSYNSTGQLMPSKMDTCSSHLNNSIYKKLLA
# Assay: Antagonism of SFLLR-induced calcium release in CHO cells (FLIPR, Fluo-3AM)
# Type: cell-based, Chinese hamster
# Details: agonist SFLLR-NH2, Arunlakshana and Schild method from EC50 shifts at three antagonist concentrations
# Procedure: In a variety of cell types, activation of PAR-1 receptors by the SFLLR peptide (a selective PAR-1 agonist) triggers an intracellular signal cascade leading to the release of calcium by the endoplasmic reticulum. Chinese hamster ovarian (CHO) cells constituently express PAR-1 receptor. In this cell line, the release of calcium consecutive to receptor activation by SFLLR is measured by a fluorometry technique (fluorometric imaging plate reader, or FLIPR) using a selective probe for calcium (Fluo-3AM). The emission of fluorescence is pharmacologically proportional to the efficiency of the PAR-1 agonist and to its concentration.
# Culture medium: Ham's F-12 (Ham, R. G., Proc. Nat. Acad. Sci. 1965, 53: 288) supplemented with 10% fetal calf serum and […].
# Fluorescent probe: Fluo-3AM (4 μM; Teflabs, Austin, Tex., USA)
# Agonist: SFLLR-NH2 (Serine, phenylalanine, leucine, leucine, arginine).
# Methods: CHO cells are inoculated in 96-well plates (60,000 cells per well) in the presence of 200 μl of culture medium for 24 hours. The cells are incubated with the calcium fluorescent probe for 1 hour at 37° C. The cells are then washed 10 minutes before the signal is measured. PAR-1 antagonist is then injected (0.01 μM to 10 μM). The plates are placed in the FLIPR (Molecular Devices, UK) to measure calcium fluorescence at two wavelengths (488 nm and 540 nm: Sullivan et al., Calcium Signaling Protocols 1999, 125-136). Measurements are taken for 5 min before the antagonist is added and for 10 min following its administration. Maximum fluorescence minus baseline fluorescence is measured in 4 different wells. The test is carried out in duplicate. Under these conditions, the derivatives of the present invention were identified as PAR-1 receptor antagonists (antagonism>60% of the calcium signal at 10 μM). The dose-response curves (0.01 μM to 32 μM) obtained with the SFLLR agonist allowed determination of the effective concentration inducing 50% of the maximum effect (EC50). The strengths (pA2) of some of the PAR-1 antagonists described in the present invention were calculated using the method of Arunlakshana and Schild (Brit. J. Pharmacol., 1959, 14: 48-58) from the EC50 shifts observed at three concentrations.
row,SMILES,pA2
1,"O=C(C=Cc1c(F)cccc1F)N1CCN(Cc2ccc(F)c(F)c2)CC1 [Example 8, 1-[4-(3,4-Difluoro-benzyl)-piperazin-1-yl]-3-(2,6-difluoro-phenyl)-propenone]",6.32
2,"O=C(C=Cc1ccccc1F)N1CCN(Cc2ccc(F)cc2)CC1 [Example 2, 1-[4-(4-Fluoro-benzyl)-piperazin-1-yl]-3-(2-fluoro-phenyl)-propenone]",6.50
3,"Cc1ccc(CN2CCN(C(=O)C=Cc3ccccc3Cl)CC2)cc1 [Example 4, 3-(2-Chloro-phenyl)-1-[4-(4-methyl-benzyl)-piperazin-1-yl]-propenone]",6.05
4,"Cc1cccc(CN2CCN(C(=O)C=Cc3c(F)cccc3F)CC2)c1 [Example 10, 3-(2,6-Difluoro-phenyl)-1-[4-(3-methyl-benzyl)-piperazin-1-yl]-propenone]",6.46
5,"O=C(C=Cc1ccccc1Br)N1CCN(Cc2ccc(F)cc2)CC1 [Example 3, 3-(2-Bromo-phenyl)-1-[4-(4-fluoro-benzyl)-piperazin-1-yl]-propenone]",6.36

# Next, values leading:
row,pA2,SMILES
1,6.98,"O=C(C=Cc1ccccc1[N+](=O)[O-])N1CCN(Cc2ccc(F)cc2)CC1 [Example 29, 1-[4-(4-Fluoro-benzyl)-piperazin-1-yl]-3-(2-nitro-phenyl)-propenone]"
2,6.39,"O=C(C=Cc1ccccc1Cl)N1CCN(Cc2ccccc2F)CC1 [Example 15, 3-(2-Chloro-phenyl)-1-[4-(2-fluoro-benzyl)-piperazin-1-yl]-propenone]"

# Same assay, conditions: agonist SFLLR-NH2, Arunlakshana and Schild method from EC50 shifts at three antagonist concentrations, read-out: pA2 (converted)
row,Kb,SMILES
1,759 nM,"O=C(/C=C/c1ccccc1Cl)N1CCN(CC2CCCCC2)CC1 [Example 28, 3-(2-Chloro-phenyl)-1-(4-cyclohexylmethyl-piperazin-1-yl)-]"
2,166 nM,"O=C(/C=C/c1ccccc1[N+](=O)[O-])N1CCN(CC2CCCCC2)CC1 [Example 25, 1-(4-Cyclohexylmethyl-piperazin-1-yl)-3-(2-nitro-phenyl)-propenone]"

row,SMILES,Kb
1,"O=C(/C=C/c1ccccc1Cl)N1CCN(Cc2ccc(F)cc2)CC1 [Example 1, 3-(2-Chloro-phenyl)-1-[4-(4-fluoro-benzyl)-piperazin-1-yl]-propenone]",380 nM

# Source: patent US8513258B2, “Cinnamoyl-piperazine derivatives and their use as par-1 antagonists” (Pierre Fabre Medicament, priority 2006, dated 2013)
